This note sets out measurements from EP0565593B1, “REDUCING PESTICIDAL INTERACTIONS IN CROPS” (priority 1990, dated 1992).

Values joined by “and” are separate entries in the source; they are usually repeats but may differ in a detail not shown here. Equal entries are not always repeated. Where two headings read alike, the source gives them in different places.

The subject of assay [1] is Corn. In words: Greenhouse test, combination of Procedures II and III: insecticide in-furrow or in cover layer, herbicide and antidote incorporated in cover layer (Examples 1-3, 6; Tables 1-3, 6). The note with it: 3 weeks. The assay is classed as in vivo.
For assay [2], the system named is Giant foxtail (GIFT). As to the kind of experiment: whole plant or invertebrate. The assay is classed as in vivo.
Assay [3] relates to Corn. Conditions: for antidote activity: COUNTER with BEACON, PURSUIT (POE) or XRD-498 (PPI), Tables 29-37.
The test system of assay [4] is Corn. As to the kind of experiment: Greenhouse test Procedure VII: biocide and antidote in furrow, herbicide POE (Examples 39-42, 48-50, 56-58; Tables 38-41, 47-49, 55-57). The assay is classed as in vivo. The note with it: for % Inhibition Corn: C (COUNTER) + antidote in furrow. An excerpt: This procedure describes interaction among herbicide, biocide and antidote when the biocide and the antidote is applied to a soil furrow containing crop seed before emergence of the crop and the herbicide is applied after emergence of the crop and weeds. The soil and planting depth was described in Procedure IV. The containers for comparison, the biocide and antidote applications to soil furrows were described in Procedure VI. In this procedure, the seed beds of the first, second, third and fourth containers are covered by soil layers not treated with herbicide. The containers were then placed on a bench in a greenhouse and subirrigated as required for the duration of the test. The herbicide, dispersed or dissolved in water containing 0.25% v/v nonionic surfactant (X-77) was applied by a track sprayer (187 L/ha) to the emerged plants of the second, third and fourth containers about five days after planting. All treatments were run in duplicate. Plant response was observed according to Procedure IV. Variations in this procedure will be noted in the examples.
In this example, tests were conducted according to Procedure VII for the POE application of the herbicides following in-furrow application of COUNTER® 15G insecticide (BIOCIDE No. 1) and the antidote on the pre-planted test seeds. In this test, the herbicides were Nos. 1 (MON-12000), 10 (ALLY®) and #4 (HARMONY®) and the Antidote Nos. 1, 7, 12 and 33.
These in-furrow treatments comprised a 50-50 mix of blended granules of COUNTER with and without 5G granular antidotes at 7.4 + 7.4 mg/cm or 1.1 + 0.37 mg active ingredient (a.i.)/cm. The in-furrow initiation of the test was followed five (5) days later with POE application of the herbicides; observations were made eight (8) days later.
In another test, conducted simultaneously with that in Example 39, Herbicide Nos. 5 (chlorimuron ethyl, active ingredient in CLASSIC® herbicide), 7 (nicosulfuron, active ingredient in ACCENT® herbicide) and 15 (tribenuron methyl, active ingredient in EXPRESS® herbicide) were substituted as test herbicides.
In this example, using the same procedure as above, the following imidazolinone herbicides were used with the same insecticide/biocide and antidotes as above: Herb. No. 16 (imazaquin, a.i. in SCEPTER® herbicide; No. 19 (Code No. AC 222293, a.i. in ASSERT® herbicide); No. 6 (imazethapyr, a.i. in PURSUIT® herbicide and No. 18 (imazapyr, a.i. in ARSENAL® herbicide). Test results are shown in Table 40. Table 40
This example describes the testing of the above antidotes used in Examples 39-41 to safen negative synergy interactions between representative species of the class of herbicidal compounds identified as azolopyrimidine sulfonamides and COUNTER 15G. The same procedure used in the above examples was conducted in this test. In this test, the herbicides were formulated in 17% acetone and 83% water with 0.25% v/v X-77 surfactant.
In these tests (according to Procedure VII) the safeners in solution with acetone were applied in furrow to the soil, followed by COUNTER 15G granules at 227 g/305 m (8 oz./1000'). Applications were made in alternate rows in two separate 13.7 cm x 27.7 cm pans containing Dupo silt loam. Pans were seeded 1.3 cm deep, placed on benches in a greenhouse and subirrigated. BEACON was formulated in water with 0.25% v/v X-77 surfactant and applied by track sprayer at a rate of 187 L/Ha (20 gal/A). Weed species in this test were giant foxtail, shattercane and velvetleaf. The herbicide was applied five (5) days after PPI initiation and observation of test result (shown in Table 47) made eight (8) days later.
In Table 47 COUNTER 15G is abbreviated as "C" and the antidotes as "A" in the column headings which indicate the "C + A" ratios used in the tests. Control and COUNTER treatments are average of four (4) replications and COUNTER + Antidote treatments, average of 2 reps. […]

For assay [5], the system named is Corn.
Assay [6] has as its system Shattercane (SHCA). The assay is classed as in vivo.
Assay [7] deals with Velvetleaf (VELE). The assay is classed as in vivo, Abutilon theophrasti.
Setting [8] is: […], 13 days after planting, 8 days after herbicide.
Where [9] appears, read: Antidote 4.48 + Biocide No. 1 8.96 Kg/Ha PPI, Herb. No. 8 0.07, 5 DAP, before herbicide application.
Setting [10] is: Antidote 4.48 + Biocide No. 1 8.96 Kg/Ha PPI, Herb. No. 8 0.07 POE, 13 DAP.
Where [11] appears, read: Antidote 4.48 + Biocide No. 1 8.96 Kg/Ha PPI, Herbicide No. 7 0.28 POE, 13 days after planting.
Setting [12] is: Table 14: Herbicide No. 7 (ACCENT) 0.84 Kg/Ha POE + Biocide No. 2 8.96 Kg/Ha PPI + antidote 4.48 Kg/Ha PPI, 13 days after planting, 8 days after herbicide.
[13] abbreviates: […], observed 10 days after herbicide application.
[14] abbreviates: Herb. […], 5 DAP, before herbicide application.
[15] abbreviates: C:A Ratio 20, ACCENT 0.56 Kg/Ha POE.
[16] abbreviates: C:A Ratio 20, BEACON 0.28 Kg/Ha POE.
[17] abbreviates: C:A Ratio 40, ACCENT 0.56 Kg/Ha POE.
Where [18] appears, read: C:A Ratio 40, BEACON 0.28 Kg/Ha POE.
The mark [19] stands for this setting: C:A Ratio 80, ACCENT 0.56 Kg/Ha POE.
[20] abbreviates: C:A Ratio 80, BEACON 0.28 Kg/Ha POE.
Setting [21] is: C:A Ratio 160, ACCENT 0.56 Kg/Ha POE.
[22] abbreviates: C:A Ratio 160, BEACON 0.28 Kg/Ha POE.

As for `Cc1c(F)c(F)c(COC(=O)[C@@H]2[C@H](/C=C(\Cl)C(F)(F)F)C2(C)C)c(F)c1F` (racemic) [Biocide No. 3, 2,3,5,6-tetrafluoro-4-methylbenzyl-(Z(-(1 RS, 3RS)-3-(2-Chloro-3,3,3-trifluoroprop-1-ethyl)-2,2-dimethyl-cyclopropane carboxylate, reference compound], the “% Injury Corn” value in assay [1] (Ex. 3: Insecticide 3 (227g) alone) is on record as 3%.
Regarding `O=C1OC(=O)c2cccc3cccc1c23` [Antidote No. 5, 1H,3H-Naphtho<1,8-cd>pyran-1,3-dione], in assay [2] (XRD-498 + OP insecticides, Examples 24-27), the “giant foxtail control” value is “reduction in giant foxtail control”.
Consider `N#CCON=C(C#N)c1ccccc1` [Antidote No. 9, Benzeneacetonitrile, alpha-<(cyano-methoxy)imino>-], for which the “antidote activity” value in assay [3] was “active safeners”.
Regarding `O=C(C(Cl)Cl)N1CCOC12CCCCC2` [Antidote No. 16, 1-Oxa-4-azaspiro<4.5>decane, 4-(dichloroacetyl)-], the “corn injury” value in assay [4] (COUNTER 15G + BEACON/co-herbicide combinations, Example 56) is “reduced corn injury”. In addition, in assay [4] (COUNTER 15G/BEACON, Example 48), the “safening, comparison” value is on record as “not as active as the other safeners”. Besides, the “protecting corn, comparison” value in assay [4] (COUNTER/BEACON (and ACCENT), Examples 49, 50) is “weak in safening effect”.
On to `CC1COc2ccccc2N1C(=O)C(Cl)Cl` (stereo not drawn) [Antidote No. 28, 4-(Dichloroacetyl)-3,4-dihydro-3-methyl-2H-1,4-benzoxazine], for which the “safening, comparison” value in assay [3] (Example 29, COUNTER with BEACON and ACCENT) was “comparable to MON-13900 (No. 1), but less effective than MON-7400”. Further, the “safening” value is given as “Effective safening” in assay [5] (DIAZINON + Herbicides 1, 21, 18, Example 53) and “moderate to high degrees of safening” in assay [5] (malathion + Herbicides 1, 21, 18, Example 54).
Consider `CCSC(=O)COC(c1ccccc1)c1ccccc1` [Antidote No. 51, Ethanethioic acid, 2-(diphenyl-methoxy)-, S-ethyl ester], for which the “antidote activity” value in assay [3] is reported as “most active”.
As for `O=C(O)c1sc(Cl)nc1C(F)(F)F` [Antidote No. 65, 5-Thiazolecarboxylic acid, 2-chloro-4-(trifluoromethyl)-], the “antidote activity” value in assay [3] is “slightly more active than other thiazoles tested”.
For the compound `CNC(=O)Oc1cccc2c1OC(C)(C)C2` [Biocide No. 4, 2,3-Dihydro-2,2-dimethyl-7-benzofuranyl methylcarbamate, reference compound], the “% Injury Corn” value in assay [1] (Ex. 3: Insecticide 4 (227 g) alone) came to 5%.
For the compound `CCOP(=S)(OCC)SCSCC` [Biocide No. 10, O,O-Diethyl S-[(ethylthio)methyl]phosphorodithioate, reference compound], the “% Inhibition SHCA” value in assay [6] (in vivo) is recorded as 25%. Besides, the “% Inhibition GIFT” value in assay [2] (in vivo) is 30% and 20%.
Regarding `O=C(OCc1ccccc1)c1sc(Cl)nc1C(F)(F)F` [compound 7], the “% Inhibition VELE” value is 65% in assay [7] (setting [8]) and 75% in assay [7] ([…], observed 7 days after POE (Table 35)).
For `C=CCC(C)(C#N)Sc1ccc(C)cc1` (stereo not drawn) [compound 32], the “% Inhibition 5 DAP SHCA” value in assay [6] (setting [9]) and in assay [6] (in vivo) was 30% throughout. Besides, the “% Inhibition 13 DAP SHCA” value in assay [6] (setting [10]) is 85%; in assay [6] (in vivo), 80%. Besides, the “% Inhibition SHCA” value in assay [6] (setting [11]) amounted to 70%; in assay [6] (setting [12]), 70%; in assay [6] (setting [8]) it was 95%; in assay [6] (setting [13]), 50%. The “% Inhibition 5 DAP VELE” value in assay [7] (setting [9]), in assay [7] (setting [14]) and in assay [7] (in vivo) was 0% throughout. The figures for the “% Inhibition 13 DAP VELE” value in assay [7] (setting [10]) and in assay [7] (in vivo) were 90% and 85%, respectively. In addition, the “% Inhibition VELE” value in assay [7] (setting [11]) worked out at 65%; in assay [7] (setting [12]), 60%; in assay [7] (setting [8]), 70%; in assay [7] (setting [13]), 80%. Besides, the “% Inhibition 5 DAP Corn” value in assay [3] (setting [9]) was 0%; in assay [3] (setting [14]) it was 0%; in assay [3] (in vivo), 20%. The “% Inhibition 13 DAP Corn” value is listed as 75% in assay [3] (setting [10]) and 70% in assay [3] (in vivo). For the same compound, the “% Inhibition Corn” value in assay [3] (setting [11]) was 55%; in assay [3] (setting [12]), 35%; in assay [3] (setting [8]) it was 25%; in assay [3] (setting [13]), 70%; in assay [3] (in vivo), 65% and 55% and 45%. In addition, in assay [3] (primisulfuron POE + biocides PPI, Tables 8-10), the “activity in reducing corn injury” value is “either inactive or weakly active”.
`O=C(O)COC(c1ccccc1)c1ccccc1` [compound 78]: the “% Inhibition Corn” value amounted to 25% in assay [4] (setting [15]); 5% in assay [4] (setting [16]); 20% in assay [4] (setting [17]); 5% in assay [4] (setting [18]); 40% in assay [4] (setting [19]); 20% in assay [4] (setting [20]). For the same compound, the “% Inhibition Corn” value was 60% in assay [4] (setting [21]) and 20% in assay [4] (setting [22]).
For the compound `O=C(O)COC(c1ccccc1)c1ccccc1` [compound 79], the “% Inhibition Corn” value stood at 15% in assay [4] (setting [15]); 0% in assay [4] (setting [16]); 20% in assay [4] (setting [17]); 5% in assay [4] (setting [18]); 30% in assay [4] (setting [19]); 15% in assay [4] (setting [20]). Besides, the “% Inhibition Corn” value is on record as 45% in assay [4] (setting [21]) and 20% in assay [4] (setting [22]).
